Our source for the MIC and CC50 values is ChEMBL document CHEMBL4513161, “CO-ADD screening of MMV (CH) - Pandemic Response Box” (2021).

≈ marks a conversion by molar mass, not a printed value.

The subject of assay [1] is Pseudomonas aeruginosa. Nature of the assay: Antibacterial activity against Pseudomonas aeruginosa PAO397 [PAO1 d(mexAB-oprM) d(mexCD-oprJ) d(mexEF-oprN) d(mexJKL) d(mexXY) d(opmH)] (CO-ADD:GN_211); MIC in CAMBH media using NBS plates, by OD(600). The following applies: ASSAY_TEST Inhibition of Bacterial Growth, detection method Absorption (OD600), MEDIA CAMHB, plate type 384well, CORNING #3640, time 18 hr. It counts as functional.

The test system of assay [2] is Klebsiella pneumoniae. Briefly: microbe, parasite or virus in culture. The following applies: ATCC 700603, 18 h, ASSAY_TEST Inhibition of Bacterial Growth, detection method Absorption (OD600), MEDIA CAMHB, plate type 384well, NBS, CORNING #3640.
Description: Antibacterial activity against Klebsiella pneumoniae MDR ATCC 70063 (CO-ADD:GN_003); MIC in CAMBH media using NBS plates, by OD(600)
For assay [3], the system named is Cryptococcus neoformans.
Description: Antifungal activity against Cryptococcus neoformans H99 ATCC 208821 (CO-ADD:FG_002); MIC in YNB media using NBS plates, by Resazurin OD(600-570)
Assay [4] concerns Candida albicans. Nature of the assay: microbe, parasite or virus in culture. The following applies: ATCC 90028, ASSAY_TEST Inhibition of Fungal Growth, detection method Absorption (OD530), plate type 384well, NBS, CORNING #3640.
Description: Antifungal activity against Candida albicans ATCC 90028 (CO-ADD:FG_001); MIC in YNB media using NBS plates, by OD630
Assay [5] deals with Acinetobacter baumannii. Briefly: microbe, parasite or virus in culture. The following applies: ATCC 19606, 18 h, ASSAY_TEST Inhibition of Bacterial Growth, detection method Absorption (OD600), MEDIA CAMHB, plate type 384well, NBS, CORNING #3640.
Description: Antibacterial activity against Acinetobacter baumannii ATCC 19606 (CO-ADD:GN_034); MIC in CAMBH media using NBS plates, by OD600
The test system of assay [6] is Staphylococcus aureus. Nature of the assay: microbe, parasite or virus in culture. The following applies: ATCC 43300, 18 h, ASSAY_TEST Inhibition of Bacterial Growth, detection method Absorption (OD600), MEDIA CAMHB, plate type 384well, NBS, CORNING #3640.
Description: Antibacterial activity against Staphylococcus aureus MRSA ATCC 43300 (CO-ADD:GP_020); MIC in CAMBH media, using NBS plates, by OD(600)
The subject of assay [7] is Pseudomonas aeruginosa. Briefly: microbe, parasite or virus in culture. The following applies: ATCC 27853, 18 h, ASSAY_TEST Inhibition of Bacterial Growth, detection method Absorption (OD600), MEDIA CAMHB, plate type 384well, NBS, CORNING #3640.
Description: Antibacterial activity against Pseudomonas aeruginosa ATCC 27853 (CO-ADD:GN_042); MIC in CAMBH media using NBS plates, by OD(600)
Assay [8] relates to Escherichia coli. Briefly: microbe, parasite or virus in culture. The settings on record: ATCC 25922, 18 h, ASSAY_TEST Inhibition of Bacterial Growth, detection method Absorption (OD600), MEDIA CAMHB, plate type 384well, NBS, CORNING #3640.
Description: Antibacterial activity against Escherichia coli ATCC 25922 (CO-ADD:GN_001); MIC in CAMBH media using NBS plates, by OD(600)
The test system of assay [9] is HEK293. Nature of the assay: cells. The format is functional, Homo sapiens, ATCC CRL1573. The following applies: Homo sapiens, ATCC CRL1573, HEK293; ASSAY_TEST Inhibition of Cell Viability; detection method Resazurin; Fluorescence (ex560/em590); MEDIA DMEM with 10% FBS; plate type 384well; TC; CORNING #3712; time 18 hr; read-out: CC50.

For the compound `Nc1nc(N)c2c(Sc3ccccc3)cccc2n1`, the MIC in [1], in assay [2], in [3], in assay [4], in [5] and in [6] was > 20 µM throughout. Also, the MIC in assay [7] and in assay [8] was > 20 µM each time. The CC50 in assay [9] is 10.8 µM.
For the compound `Clc1cc2nc(C3CCNCC3)n(Cc3ccc(CNCCc4c[nH]cn4)cc3)c2cc1Cl`, the MIC in assay [1], in assay [2], in assay [3], in assay [4], in assay [5] and in [6] was > 20 µM each time. The MIC in [7] and in assay [8] was > 20 µM throughout. Also, in assay [9], the CC50 was > 20 µM.
`Nc1cccc(-c2nc(N)nc(NC3Cc4ccccc4C3)n2)c1`: the MIC in assay [1], in [2], in assay [3], in [4], in [5] and in assay [6] was > 20 µM throughout. The MIC in assay [7] and in assay [8] was > 20 µM each time. For the same compound, in assay [9], the CC50 is > 20 µM.
As for `O=C(NCc1ccccc1Cl)c1cnc2ccccc2n1`, the MIC in assay [1], in [2], in [3], in assay [4], in assay [5] and in assay [6] was > 20 µM throughout. Moreover, the MIC in assay [7] and in assay [8] was > 20 µM throughout. The CC50 in [9] was > 20 µM.
As for `C=C(C)n1c(=O)n(Cc2ccccc2C)c2ccccc21`, the MIC in assay [1], in [2], in assay [3], in [4], in [5] and in assay [6] was > 20 µM in each case. Moreover, the MIC in [7] and in assay [8] was > 20 µM each time. The 50% cytotoxic concentration (CC50) in assay [9] was > 20 µM.
`Nc1nnc(-c2ccc(Cl)cc2)s1`: the MIC in assay [1], in assay [2], in assay [3], in assay [4], in assay [5] and in assay [6] was > 20 µM throughout. The MIC in assay [7] and in assay [8] was > 20 µM each time. In addition, the CC50 in [9] was > 20 µM.
Turning to `NS(=O)(=O)c1ccc(NC(=O)NC(c2ccccc2)c2ccccc2)cc1`, the MIC in assay [1], in assay [2], in [3], in assay [4], in assay [5] and in assay [6] was > 20 µM throughout. Besides, the MIC in assay [7] and in assay [8] was > 20 µM each time. Moreover, the 50% cytotoxic concentration (CC50) in assay [9] is > 20 µM.
Regarding `CCCCOC(=O)Nc1cc2nc(C3CCCCC3)[nH]c2cc1N(CC)CC`, the MIC in [1], in [2], in assay [3], in assay [4], in [5] and in [6] was > 20 µM throughout. Further, the MIC in assay [7] and in assay [8] was > 20 µM each time. Moreover, the CC50 in assay [9] is > 20 µM.
On to `CCCCCCCCC(CP(=O)(O)C(C)N)C(=O)O` (centres undefined), for which the MIC in assay [1], in [2], in assay [3], in assay [4], in assay [5] and in [6] was > 20 µM throughout. The MIC in assay [7] and in assay [8] was > 20 µM in each case. Also, in assay [9], the CC50 is > 20 µM.
With `CCc1cc(Nc2cc(=O)n(CCN3CCN(C(=O)c4ccccc4)CC3)c(=O)[nH]2)ccc1C`, the MIC in assay [1], in assay [2], in assay [3], in [4], in [5] and in [6] was > 20 µM in each case. Further, the MIC in assay [7] and in [8] was > 20 µM throughout. In assay [9], the half-maximal cytotoxic concentration (CC50) was > 20 µM.
`NC(=O)c1cnc2ccc(S(=O)(=O)c3ccccc3)cc2c1Nc1ccc(O)cc1`: the MIC in assay [1], in assay [2], in assay [3], in [4], in assay [5] and in assay [6] was > 20 µM each time. The MIC in assay [7] and in assay [8] was > 20 µM each time. For the same compound, in assay [9], the CC50 is > 20 µM.
`C(=C\c1nc2ccccc2[nH]1)/c1ccc2c(c1)OCO2`: the MIC in [1], in assay [2], in [3], in assay [4], in [5] and in assay [6] was > 20 µM each time. In addition, the MIC in assay [7] and in assay [8] was > 20 µM each time. For the same compound, the CC50 in [9] is > 20 µM.
As for `COc1ccc2cc3[n+](cc2c1OCCN(CCn1cncn1)Cc1ccc(F)cc1F)CCc1cc2c(cc1-3)OCO2`, the MIC in assay [1], in assay [2], in assay [3], in assay [4], in assay [5] and in assay [6] was > 20 µM in each case. Moreover, the MIC in [7] and in [8] was > 20 µM each time. Also, the CC50 in assay [9] was > 20 µM.
On to `CC(C)(C)OC(=O)NCc1ccc(C(=O)N[C@H]2CCOC2=O)cc1`, for which the MIC in assay [1], in [2], in assay [3], in [4], in [5] and in [6] was > 20 µM each time. Also, the MIC in [7] and in [8] was > 20 µM throughout. Further, the CC50 in [9] is > 20 µM.
As to `O=c1cc(OCc2ccccc2)ccn1Cc1ccccc1`, the MIC in assay [1], in assay [2], in [3], in assay [4], in [5] and in assay [6] was > 20 µM in each case. Besides, the MIC in assay [7] and in [8] was > 20 µM throughout. In addition, in assay [9], the CC50 is > 20 µM.
Turning to `CCCC(=O)OCCc1ccccc1`, the MIC in [1], in assay [2], in assay [3], in assay [4], in assay [5] and in [6] was > 20 µM each time. The MIC in assay [7] and in assay [8] was > 20 µM each time. Besides, the CC50 in assay [9] was > 20 µM.
For `O=[N+]([O-])c1ccc2c(CCc3c[nH]c4ccccc34)c[nH]c2c1`, the MIC in [1], in assay [2], in [3], in [4], in [5] and in [6] was > 20 µM in each case. Besides, the MIC in [7] and in assay [8] was > 20 µM each time. Moreover, the CC50 in assay [9] was > 20 µM.
With `COc1cc(Cc2cc(N)nc(N)n2)cc(OC)c1OC`, the MIC in assay [1] was 5 µM (≈ 1.45 µg/mL); in assay [2] it was 10 µM (≈ 2.9 µg/mL); in [3] it was > 20 µM; in [4] it was > 20 µM; in assay [5], > 20 µM; in assay [6], 5 µM (≈ 1.45 µg/mL). The MIC in assay [7] was 20 µM (≈ 5.81 µg/mL); in assay [8], 2.5 µM (≈ 0.726 µg/mL). In addition, in [9], the CC50 is > 20 µM.
As for `O=C(Nc1ccc(Cl)c(C(F)(F)F)c1)C(CCCl)C(=O)Nc1ccc(Cl)c(C(F)(F)F)c1`, the MIC in assay [1], in [2], in assay [3], in assay [4], in assay [5] and in assay [6] was > 20 µM each time. The MIC in assay [7] and in [8] was > 20 µM each time. Further, in assay [9], the CC50 was > 20 µM.
For `NC(=O)[C@@H]1CC[C@@H]2CN1C(=O)N2OS(=O)(=O)O`, the MIC in [1], in [2], in assay [3], in assay [4], in assay [5] and in assay [6] was > 20 µM in each case. Moreover, the MIC in assay [7] and in [8] was > 20 µM each time. For the same compound, the CC50 in [9] was > 20 µM.
With `CCN(CC)S(=O)(=O)c1ccc(Cl)c(C(=O)Nc2sc3c(c2C#N)CCCC3)c1`, the MIC in assay [1], in [2], in assay [3], in assay [4], in assay [5] and in [6] was > 20 µM in each case. Further, the MIC in [7] and in [8] was > 20 µM in each case. Also, in [9], the CC50 was > 20 µM.
